{"source": "patent US8198320B2", "about": "“Hypoglycemic activity of osthole” (Taipei Medical University, priority 2008, dated 2012)", "key": {"[1]": {"tested_on": "db/db diabetic mice", "test": "Effect of oral administration of osthole on blood glucose level of db/db diabetic mice", "type": "in vivo", "conditions": "male db/db mice, 50 mg/kg by gastric tube once daily, five days a week for three weeks, fasted about 16 hours; before treatment about 200 mg/dL; PBS control 400 mg/dL", "procedure": "Six male db/db diabetic mice (5 to 7 week-old, purchased from National Laboratory Animal Center (Taipei, Taiwan)) were fasted for over 8 hours and venous blood was collected for the measurement of blood glucose level. The mice were divided into two groups (control group and experimental group) on the basis of their blood glucose level and body weight. The mice in the control group were fed with PBS by gastric tube. The mice in the experimental group were fed with osthole (50 mg/kg body weight) by gastric tube. The PBS and osthole were administered once daily, five days a week for three weeks. The mice were then fasted for about 16 hours before being sacrificed and blood samples were collected for the measurement of blood glucose level. […] After three weeks of treatment, the blood glucose level of the mice in the control group was elevated to 400 mg/dL; whereas, the blood glucose level of the mice in the experimental group was maintained at about 210 mg/dL."}, "[2]": {"tested_on": "db/db diabetic mice", "test": "Effect of intraperitoneal administration of osthole on blood glucose level of db/db diabetic mice", "type": "in vivo", "conditions": "male db/db mice, 50 mg/kg intraperitoneal once daily, five days a week for two weeks, fasted about 16 hours; before treatment about 360 mg/dL; DMSO control 550 mg/dL", "procedure": "Six male db/db diabetic mice (6 to 11 week-old, purchased from National Laboratory Animal Center (Taipei, Taiwan)) were fasted for over 8 hours and venous blood was collected for the measurement of blood glucose level. The mice were divided into two groups (control group and experimental group) on the basis of their blood glucose level and body weight. The mice in the control group were given the solvent DMSO by means of intraperitoneal administration. The mice in the experimental group were given osthole (50 mg/kg body weight) (purchased from Hangzhou Gosun Biotechnologies Co., Zhejiang, China) by means of intraperitoneal administration. The solvent and osthole were administered once daily, five days a week for two weeks. The mice were then fasted for about 16 hours before being sacrificed and blood samples were collected for the measurement of blood glucose levels. […] After two weeks of treatment, the blood glucose level of the mice in the control group was elevated to 550 mg/dL, whereas the blood glucose level of the mice in the experimental group was maintained at about 360 mg/dL."}}}
{"smiles": "COc1ccc2ccc(=O)oc2c1CC=C(C)C", "note": "[osthole, 7-methoxy-8-(3-methyl-2-butenyl)-2H-1-benzopyran-2-one]", "values": [{"measurement": "blood glucose level after three weeks of treatment", "setting": "[1]", "value": "about 210 mg/dL"}, {"measurement": "blood glucose level after two weeks of treatment", "setting": "[2]", "value": "about 360 mg/dL"}]}
